Results taken from US7192952B2, “Heterocyclic compounds that are inhibitors of the enzyme DPP-IV” (Novo Nordisk, A/S, priority 2001, dated 2007).
Counter-ions that a name gives are not always drawn.

Compared with `Cn1c(=O)c2c(nc(N3CC[C@H](N)C3)n2Cc2ccccc2)n(C)c1=O` (as salt: HCl) [Example 3, (S) 8-(3-Aminopyrrolidin-1-yl)-7-benzyl-1,3-dimethyl-3,7-dihydropurine-2,6-dione], `Cn1c(=O)c2c(nc(N3CC[C@H](N)C3)n2Cc2ccccc2Br)n(C)c1=O` (as salt: HCl) [Example 12, (S) 8-(3-Aminopyrrolidin-1-yl)-7-(2-bromobenzyl)-1,3-dimethyl-3,7-dihydropurine-2,6-dione] is higher in melting point: 166 to 169 °C for the first, 215 to 217 °C for the second.

For `Cn1c(=O)c2c(nc(N3CC[C@H](N)C3)n2Cc2ccccc2C#N)n(C)c1=O` (as salt: HCl) [Example 8, (S) 2-(8-(3-Aminopyrrolidin-1-yl)-1,3-dimethyl-2,6-dioxo-1,2,3,6-tetrahydropurin-7-ylmethyl)benzonitrile], the melting point was 104 to 117 °C.
